Results on 10 compounds are retold here after patent US20150266836A1, “AROMATIC SULFIDE COMPOUNDS AND METHODS AND USE THEREOF” (The Regents of the University of California, priority 2014, published 2015).

pEC50: −log10 of the molar value.

Series [1] deals with MCF-7 breast cancer cell line. As to the kind of experiment: Proliferation-based anti-breast-cancer assay (CyQUANT Cell Proliferation Assay) against MCF-7 cells. The conditions noted are these: for anticancer activity: inhibition of MCF-7 cell proliferation (result in words): compounds at 10 μM, compared to faslodex (ICI 182,780), FIG. 1; for pEC50: Homo sapiens, MCF7, dose-response, 10 concentrations serially diluted from 120 μM, DMEM 2% FBS, normalized to DMSO vehicle, read-out: inhibition of MCF-7 cell proliferation, EC50. The method, then:
Biological experiments were performed according to a modified procedure by Sigman et al.
MCF-7 cells were maintained in DMEM/high glucose supplemented with 10% FBS, L-glutamine, and penicillin/streptomycin. Experiments with MCF-7 cells were performed in DMEM/high glucose supplemented with 2% FBS, L-glutamine, and penicillin/streptomycin. MCF-10A cells were maintained in standard medium according to a modified recipe by Brugge et al. DMEM/F12 supplemented with 5% horse serum, 10 μg/mL of human insulin, 0.5 μg/mL of hydrocortisone, 10 ng/mL of EGF, 100 ng/mL of cholera toxin, and penicillin/streptomycin. Experiments with MCF-10A cells were performed in the same medium.
MCF-7 cells were centrifuged in 1×PBS for 20 min, and then the pellet was resuspended in DMEM supplemented with 10% FBS and filtered through a 40 μm nylon cell strainer (Fisher Scientific) to prevent clumping. The cells were seeded at 1500 cells per well in 96-well flat bottom plates suitable for fluorimetry, using 175 μL per well of DMEM supplemented with 10% FBS, and grown for 24 h in 5% CO2 at 37° C. The compounds (including the faslodex positive control) were dissolved in molecular biology grade DMSO to achieve a 3.5 mM stock solution and then sterile filtered through a 0.45 μm PVDF syringe filter unit (Fisher Scientific). The 3.5 mM stock solutions were subsequently diluted to a final concentration of 10 μM in DMEM supplemented with 2% FBS. Additionally, the corresponding DMSO vehicle control was diluted using the same medium.
After 24 h of growth, the cells were treated by replacing the normal media with fresh media containing the individual compounds or vehicle control (day 0). The outer rows of wells were not used to eliminate the possibility of effects due to evaporation of media. The cells were incubated with compound for 48 h and then treated again by aspirating the media and adding fresh media containing the compounds and controls (day 2). This procedure was repeated after an additional 48 h (day 4). After incubating a final 24 h, the 96-well plates were rinsed with 1×PBS, blotted dry, and then frozen at −78° C. overnight (day 5). On day 6, cell proliferation was measured using the fluorescence-based CyQUANT Cell Proliferation Assay Kit (Invitrogen).
Fluorimetry analysis was performed according to a modified procedure by McGowan et al. Cells were stained with 200 μL/well of 1× CyQUANT GR dye in cell lysis buffer for 10 min in the dark at room temperature and quantified by fluorimetry at 535 nm with 485 nm excitation. The fluorescence values were normalized to the DMSO vehicle control. The normalized values were plotted as an average±standard deviation of 6 wells per compound.
MCF-7 cells were centrifuged in 1×PBS for 20 min, and then the pellet was resuspended in DMEM supplemented with 10% FBS and filtered through a 40 μm nylon cell strainer (Fisher Scientific) to prevent clumping. The cells were seeded at 1500 cells per well in 96-well flat bottom plates suitable for fluorimetry, using 175 μL, per well of DMEM supplemented with 10% FBS, and grown for 24 h in 5% CO2 at 37° C. The compounds 19 and 25 were dissolved in molecular biology grade DMSO to achieve a 42 mM stock and then sterile filtered through a 0.45 μm PVDF syringe filter unit (Fisher Scientific). […]
Addition of compounds was performed as specified above for days 0-6. […] The fluorescence values were normalized to the DMSO vehicle controls corresponding to each concentration.

For the compound `c1ccc(Sc2nc3ccccc3o2)cc1` [Compound 16, 2-Phenylthiobenzoxazole], the “anticancer activity: inhibition of MCF-7 cell proliferation (result in words)” value (from here on “anticancer activity: inhibition”) in series [1] was “inactive”. In the case of `Fc1c(F)c(F)c(Sc2ccccc2)c(F)c1F` [Compound 11, (Perfluorophenyl)(phenyl)sulfane], the melting point (commonly the temperature of the solid-liquid transition) was 45 to 48 °C. On the same count and under the same terms, then `N#Cc1cccc(Sc2ncccn2)c1` [Compound 23, 3-(Pyrimidin-2-ylthio)benzonitrile], with 71 to 73 °C. In the case of `COc1cc(Sc2nnc(-c3ccccc3)o2)cc(OC)c1OC` [Compound 27, 2-Phenyl-5-(3,4,5-trimethoxyphenylthio)-1,3,4-oxadiazole], the melting point came to 142 °C. For the same compound, the “anticancer activity: inhibition” value in series [1] was “performed poorly”. For the compound `COc1cc(Sc2nc3ccccc3o2)cc(OC)c1OC` [Compound 25, 2-(3,4,5-Trimethoxyphenylthio)benzoxazole], the melting point lay within 129 to 130 °C. The pEC50 in series [1] is 5.35. Turning to `COc1cc(Sc2nnnn2-c2ccccc2)cc(OC)c1OC` [Compound 26, 1-Phenyl-5-(3,4,5-trimethoxyphenylthio)-1H-tetrazole], the melting point is 110 to 111 °C. For the compound `c1ccc(Sc2nc3ccccc3s2)cc1` [Compound 15, 2-Phenylthiobenzothiazole], in series [1], the “anticancer activity: inhibition” value was “inactive”. Take `c1ccc(Sc2nnc(-c3ccccc3)o2)cc1` [Compound 19, 2-Phenyl-5-(phenylthio)-1,3,4-oxadiazole]: in series [1], the pEC50 is 5.10.

As for `COc1cc(Sc2ncccn2)cc(OC)c1OC` [Compound 24, 2-(3,4,5-Trimethoxyphenylthio)pyrimidine], the melting point was 103 to 104 °C. For `c1ccc(Sc2nnnn2-c2ccccc2)cc1` [Compound 18, 1-Phenyl-5-(phenylthio)-1H-tetrazole], the melting point was 129 to 133 °C.
